# From article PMC10333884, “Large‐scale phosphomimetic screening identifies phospho‐modulated motif‐based protein interactions” (Molecular Systems Biology, 2023)
# Non-standard residues stand in square brackets, D forms with d. Residues, ends and D or L forms follow the SMILES beside them. pS = N[C@@H](COP(=O)(O)O)C(=O)O
# How the values were obtained:
# KPNA4 ARM Major = target: T1, KPNA4 ARM Major (Homo sapiens, UniProt O00629); test: FP displacement assay, KPNA4 ARM major pocket; assay type: binding; details: for IC50: Fig 3E, KPNA4 ARM major, technical triplicates, read-out: IC50 values of displacement curves, with SEM; for Kd: major pocket probe FITC-MYC 5 nM, 50 mM sodium phosphate pH 7.4, room temperature, at least three technical replicates, read-out: KD values ± SEM
# T1 construct: 60-487; GST (cleaved yes); made in house; host or cells: Escherichia coli BL21-Gold(DE3)
# T1 sequence (O00629 60-487): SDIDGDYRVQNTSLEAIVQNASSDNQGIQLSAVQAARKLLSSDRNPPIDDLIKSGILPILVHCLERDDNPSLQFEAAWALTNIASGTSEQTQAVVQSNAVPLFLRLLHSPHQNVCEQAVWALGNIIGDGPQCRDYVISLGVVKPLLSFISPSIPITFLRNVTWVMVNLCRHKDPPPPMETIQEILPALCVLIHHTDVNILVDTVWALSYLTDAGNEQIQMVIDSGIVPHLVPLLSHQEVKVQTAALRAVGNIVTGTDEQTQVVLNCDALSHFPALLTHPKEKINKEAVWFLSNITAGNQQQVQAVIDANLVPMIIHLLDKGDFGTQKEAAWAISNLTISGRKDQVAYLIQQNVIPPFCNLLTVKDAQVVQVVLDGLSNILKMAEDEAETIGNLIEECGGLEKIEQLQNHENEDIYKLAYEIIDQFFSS
# Experimental: (§1) FP experiments were performed as described previously (Kliche et al, [2021]). Shortly, in order to monitor the binding event, FITC‐labelled peptides were used (excitation 495 nm, emission: 535 nm) and the FP signal was recorded in mP on a SpectraMax iD5 Multi‐Mode Microplate Reader (Molecular Devices) by measuring the emitted light in two angels. The measurements were performed at room temperature and prepared in nonbinding black half area 96‐well microplates (Corning®; 50 μl/well). For measuring direct binding, that is saturation curves, a 1:1 dilution series of protein domain (25 μl/well) was generated in 50 mM sodium phosphate buffer pH 7.4 and the measurement performed with 5 nM FITC‐labelled peptide (25 μl/well). The buffer‐corrected values were subsequently plotted with PRISM and fitted to the quadratic equation (Gianni et al, [2005]).
# (§2) The 1:1 dilution series in this experiment was performed with the unlabelled peptide in 50 mM sodium phosphate buffer pH 7.4, so that each well‐contained unlabelled peptide (25 μl) at a certain concentration and pre‐formed complex (25 μl). The KD values of this indirectly monitored binding event were calculated as described previously (Nikolovska‐Coleska et al, [2004]). All measurements were at least in technical triplicates as well as biological duplicates when indicated. An amplitude shift between repeat measurements in the displacement experiments was occasionally observed due to variations in the protein preparations. If that was the case, the “active” protein concentration was back‐calculated according to the quadratic equation from the saturation curves performed in parallel. By comparing the active protein concentrations in the complex between different protein preparations, the amplitude was normalised.
# KPNA4 ARM = test: Phosphomimetic ProP-PD selection, KPNA4 ARM; assay type: binding, human; details: phosphomimetic enrichment score of the wild-type/phosphomimetic (E) pair at the phosphosite, PM_HD2 phage selection; same score in the major and minor pocket; P-value in brackets not taken
# KPNA4 ARM minor = target: T2, KPNA4 ARM minor (Homo sapiens, UniProt O00629); test: FP displacement assay, KPNA4 ARM minor pocket; assay type: binding; details: for IC50: Fig 3E, KPNA4 ARM minor, technical triplicates, read-out: IC50 values of displacement curves, with SEM; for Kd: minor pocket probe FITC-NCOR2 5 nM, 50 mM sodium phosphate pH 7.4, room temperature, at least three technical replicates, read-out: KD values ± SEM
# T2 construct: 60-487; GST (cleaved yes); made in house; host or cells: Escherichia coli BL21-Gold(DE3)
# T2 sequence (O00629 60-487): as above
# Experimental: as §1, §2
smiles,measurement,setting,value
CC(=O)N[C@@H](CC(N)=O)C(=O)N[C@@H](Cc1ccc(O)cc1)C(=O)N[C@@H](C)C(=O)N1CCC[C@H]1C(=O)N1CCC[C@H]1C(=O)N[C@H](C(=O)N[C@@H](CCCCN)C(=O)N[C@@H](CCCNC(=N)N)C(=O)N[C@@H](CCC(=O)O)C(=O)N[C@@H](CCCNC(=N)N)C(=O)N[C@H](C(=O)N[C@@H](CCC(=O)O)C(=O)N[C@@H](CO)C(=O)N[C@@H](CC(C)C)C(=O)N[C@H](C(=O)N[C@@H](CCC(N)=O)C(N)=O)[C@@H](C)O)[C@@H](C)O)C(C)C [RANBP3_114–129 E (p + 6)] (Ac-NYAPPVKRERTESLTQ-NH2),IC50,KPNA4 ARM Major,1.3 ± 0.1 µM
same,Kd,KPNA4 ARM Major,0.14 ± 0.01 µM
same,PES,KPNA4 ARM,−3.1 (0.077)
same,IC50,KPNA4 ARM minor,385 ± 220 µM
same,Kd,KPNA4 ARM minor,80 ± 27 µM
CC(=O)N[C@@H](CC(N)=O)C(=O)N[C@@H](Cc1ccc(O)cc1)C(=O)N[C@@H](C)C(=O)N1CCC[C@H]1C(=O)N1CCC[C@H]1C(=O)N[C@H](C(=O)N[C@@H](CCCCN)C(=O)N[C@@H](CCCNC(=N)N)C(=O)N[C@@H](CCC(=O)O)C(=O)N[C@@H](CCCNC(=N)N)C(=O)N[C@H](C(=O)N[C@@H](COP(=O)(O)O)C(=O)N[C@@H](CO)C(=O)N[C@@H](CC(C)C)C(=O)N[C@H](C(=O)N[C@@H](CCC(N)=O)C(N)=O)[C@@H](C)O)[C@@H](C)O)C(C)C [RANBP3_114–129 pS (p + 6)] (Ac-NYAPPVKRERT[pS]SLTQ-NH2),IC50,KPNA4 ARM Major,2 ± 0.5 µM
same,Kd,KPNA4 ARM Major,0.22 ± 0.03 µM
same,IC50,KPNA4 ARM minor,98 ± 7 µM
same,Kd,KPNA4 ARM minor,20 ± 1 µM
